According to US9382204B2, “Inhibitors targeting the DNA-binding domain of human STAT3 for treatment of metastatic cancers” (Indiana University Research and Technology Corporation, priority 2013, dated 2016):
Where two headings read alike, the source gives them in different places.

System: STAT3
Assay: STAT3-dependent luciferase reporter assay in MDA-MB-231-STAT3 stable cells
Type: cell-based, human
Conditions: 20 μM; for inhibition of luciferase expression compared to DMSO vehicle control: significant = p value less than 0.05; for activity at 20 µM: Homo sapiens
Description: FIG. 12. Identification of active inS3-54 analogues. (A) Effects of inS3-54 analogues on STAT3-dependent luciferase expression. MDA-MB-231 cells with stable STAT3-dependent luciferase expression were treated with DMSO control, 20 μM inSTAT3-54 or its analogues (A1-A79), followed by measurement of luciferase activity. (*p<0.05; **p<0.01; ***p<0.001).
MDA-MB-231-STAT3 stable cell line with high level of STAT3-dependent luciferase expression was exposed to candidate compounds at 20 μM in DMSO for 48 hours based on previous studies, and luciferase activity was measured using a luciferase assay kit (Promega, USA), following manufacturer's instructions. The final DMSO concentration in this and following assays was 0.1% (vol/vol).

[1] = mean of experiments, relative to DMSO

Row | SMILES | Rel. luciferase activity (%) 1 (experiment 1, relative to DMSO) | Rel. luciferase activity (%) 2 (experiment 2, relative to DMSO) | Rel. luciferase activity (%) 3 (experiment 3, relative to DMSO) | Rel. luciferase activity (%) Mean [1] | inhibition of luciferase expression compared to DMSO vehicle control | activity at 20 µM (experiment 1, relative to DMSO, read-out: Rel. luciferase activity (%) 1) | activity at 20 µM (experiment 2, relative to DMSO, read-out: Rel. luciferase activity (%) 2) | activity at 20 µM (experiment 3, relative to DMSO, read-out: Rel. luciferase activity (%) 3) | activity at 20 µM (mean of experiments, relative to DMSO, read-out: Rel. luciferase activity (%) Mean)
1 | COc1cccc(N2C(=O)C(=Cc3ccc([N+](=O)[O-])cc3)C=C2c2ccccc2)c1 [Compound A41] | 60.5% | 79.5% | 81.2% | 73.7% | significantly inhibited | – | – | – | –
2 | O=C1C(=Cc2ccc([N+](=O)[O-])cc2)C=C(c2ccccc2)N1c1ccccc1O [Compound A42] | 100.8% | 145.3% | 100.8% | 115.6% | – | – | – | – | –
3 | COC(=O)c1ccc(N2C(=O)C(=Cc3ccc([N+](=O)[O-])cc3)C=C2c2ccccc2)cc1 [Compound A43] | 98.6% | 100.4% | 66.9% | 88.6% | – | – | – | – | –
4 | CCN(CC)c1ccc(N2C(=O)C(=Cc3ccc([N+](=O)[O-])cc3)C=C2c2ccccc2)cc1 [Compound A45] | 60.9% | 89.3% | 71.6% | 73.9% | significantly inhibited | – | – | – | –
5 | O=C1C(=Cc2ccc([N+](=O)[O-])cc2)C=C(c2ccccc2)N1c1ccc2ccccc2c1 [Compound A46] | 156.2% | 147.8% | 64.9% | 122.9% | – | – | – | – | –
6 | CC(=O)Nc1ccc(N2C(=O)C(=Cc3ccc([N+](=O)[O-])cc3)C=C2c2ccccc2)cc1 [Compound A47] | 106.8% | 108.8% | 43.3% | 86.3% | – | – | – | – | –
7 | O=C1C(=Cc2ccc([N+](=O)[O-])cc2)C=C(c2ccccc2)N1c1ccc(Cl)c(Cl)c1 [Compound A48] | 87.5% | 108.6% | 42.5% | 79.5% | – | – | – | – | –
8 | O=C1C(=Cc2ccc([N+](=O)[O-])cc2)C=C(c2ccccc2)N1c1ccc(Nc2ccccc2)cc1 [Compound A49] | 93.7% | 124.2% | 90.2% | 102.7% | – | – | – | – | –
9 | COC(=O)c1cccc(N2C(=O)C(=Cc3ccc(OC)cc3)C=C2c2ccccc2)c1 [Compound A50] | 168.6% | 187.0% | 153.6% | 169.7% | – | – | – | – | –
10 | COc1ccc(C=C2C=C(c3ccccc3)N(c3cccc4ccccc34)C2=O)cc1 [Compound A51] | 42.2% | 71.0% | 56.6% | 56.6% | significantly inhibited | – | – | – | –
11 | COc1ccc(C=C2C=C(c3ccccc3)N(c3ccc(Cl)c(Cl)c3)C2=O)cc1 [Compound A52] | 39.5% | 141.9% | 77.7% | 86.4% | – | – | – | – | –
12 | COc1ccc(C=C2C=C(c3ccccc3)N(c3ccc(F)cc3)C2=O)cc1 [Compound A53] | 45.4% | 113.0% | 47.4% | 68.6% | – | – | – | – | –
13 | COC(=O)c1ccc(N2C(=O)C(=Cc3ccc(OC)cc3)C=C2c2ccccc2)cc1 [Compound A54] | 77.8% | 100.8% | 41.7% | 73.5% | – | – | – | – | –
14 | COc1ccc(C=C2C=C(c3ccccc3)N(c3ccc4ccccc4c3)C2=O)cc1 [Compound A56] | 150.7% | 143.4% | 76.2% | 123.4% | – | – | – | – | –
15 | COc1ccc(C=C2C=C(c3ccccc3)N(c3ccccc3Cl)C2=O)cc1 [Compound A57] | 59.5% | 97.9% | 51.5% | 69.6% | – | – | – | – | –
16 | COc1ccc(C=C2C=C(c3ccccc3)N(c3cccc(Cl)c3Cl)C2=O)cc1 [Compound A58] | 78.9% | 81.8% | 36.8% | 65.8% | – | – | – | – | –
17 | O=C1C(=Cc2ccc(Cl)cc2)C=C(c2ccccc2)N1c1ccc2ccccc2c1 [Compound A59] | 124.7% | 148.5% | 80.5% | 117.9% | – | – | – | – | –

Row | SMILES | Rel. luciferase activity (%) 1 (experiment 1, relative to DMSO) | Rel. luciferase activity (%) 2 (experiment 2, relative to DMSO) | Rel. luciferase activity (%) 3 (experiment 3, relative to DMSO) | Rel. luciferase activity (%) Mean [1] | inhibition of luciferase expression compared to DMSO vehicle control | activity at 20 µM (experiment 1, relative to DMSO, read-out: Rel. luciferase activity (%) 1) | activity at 20 µM (experiment 2, relative to DMSO, read-out: Rel. luciferase activity (%) 2) | activity at 20 µM (experiment 3, relative to DMSO, read-out: Rel. luciferase activity (%) 3) | activity at 20 µM (mean of experiments, relative to DMSO, read-out: Rel. luciferase activity (%) Mean)
18 | COc1ccc(C=C2C=C(c3ccccc3)N(c3ccc(NC(C)=O)cc3)C2=O)cc1 [Compound A60] | 70.7% | 107.0% | 58.9% | 78.9% | – | – | – | – | –
19 | O=C(O)c1ccc(N2C(=O)C(=Cc3ccc(-c4ccc(Cl)c(Cl)c4)o3)C=C2c2ccccc2)cc1 [Compound A61] | 57.8% | 107.0% | 40.8% | 68.5% | – | – | – | – | –
20 | O=C1C(=Cc2ccc(-c3ccc([N+](=O)[O-])cc3)o2)C=C(c2ccccc2)N1c1ccccc1 [Compound A62] | 71.1% | 111.3% | 52.2% | 78.2% | – | – | – | – | –
21 | O=C1C(=Cc2ccc(-c3ccc([N+](=O)[O-])cc3)o2)C=C(c2ccccc2)N1Cc1ccccc1 [Compound A64] | 79.8% | 109.6% | 49.0% | 79.5% | – | – | – | – | –
22 | CC(=O)c1cccc(N2C(=O)C(=Cc3ccc(Cl)cc3)C=C2c2ccccc2)c1 [Compound A65] | 86.6% | 103.9% | 91.2% | 93.9% | – | – | – | – | –
23 | COC(=O)c1cc(N2C(=O)C(=Cc3ccc(Cl)cc3)C=C2c2ccccc2)ccc1Cl [Compound A66] | 90.3% | 110.5% | 73.6% | 91.5% | – | – | – | – | –
24 | O=C1C(=Cc2ccc([N+](=O)[O-])cc2)C=C(c2ccccc2)N1c1ccccc1 [Compound A68] | 71.2% | 84.5% | 68.7% | 74.8% | significantly inhibited | – | – | – | –
25 | O=C(O)c1cc(N2C(=O)C(=Cc3ccc([N+](=O)[O-])cc3)C=C2c2ccccc2)ccc1O [Compound A70] | 99.0% | 97.9% | 92.8% | 96.5% | – | – | – | – | –
26 | COc1ccc(C=C2C=C(c3ccccc3)N(c3ccc(O)cc3)C2=O)cc1 [Compound A72] | 34.2% | 58.1% | 34.1% | 42.1% | significantly inhibited | – | – | – | –
27 | COc1ccc(C=C2C=C(c3ccccc3)N(c3ccccc3O)C2=O)cc1 [Compound A73] | 72.9% | 97.8% | 103.4% | 91.3% | – | – | – | – | –
28 | CCOC(=O)c1ccc(N2C(=O)C(=Cc3ccc(Cl)cc3)C=C2c2ccccc2)cc1 [Compound A74] | 65.9% | 105.7% | 74.5% | 82.0% | – | – | – | – | –
29 | COc1ccccc1N1C(=O)C(=Cc2ccc(Cl)cc2)C=C1c1ccccc1 [Compound A75] | 28.7% | 71.4% | 45.4% | 48.5% | significantly inhibited | – | – | – | –
30 | O=C1C(=Cc2ccc(Cl)cc2)C=C(c2ccccc2)N1c1cccc(Cl)c1 [Compound A76] | 60.0% | 151.4% | 104.0% | 105.1% | – | – | – | – | –
31 | CN(C)c1ccc(N2C(=O)C(=Cc3ccc([N+](=O)[O-])cc3)C=C2c2ccccc2)cc1 [Compound A77] | 109.7% | 103.0% | 77.0% | 96.6% | – | – | – | – | –
32 | COc1ccc(C=C2C=C(c3ccccc3)N(c3ccc(N(C)C)cc3)C2=O)cc1 [Compound A78] | 71.7% | 107.9% | 61.0% | 80.2% | – | – | – | – | –
33 | CCOC(=O)C1=C(C)N(c2ccc(OCC)cc2)C(=O)/C1=C\c1ccc([N+](=O)[O-])cc1 [Compound A79] | – | – | – | – | significantly inhibited | 10.2% | 44.8% | 55.6% | 36.9%
